Test results from patent publication US8288387B2, “Napthalimide-benzimidazole hybrids as potential antitumor agents and process for the preparation thereof” (Council of Scientific & Industrial Research, priority 2008, dated 2012).

What was measured:
[1] = tested on: BT-549; experiment: NCI in vitro anticancer SRB assay, BT-549; format: cell-based, human; details: BT-549, Breast Cancer
Procedure: (§1) Anticancer activity: In vitro biological activity studies were carried out at the National Cancer Institute (USA).
(§2) The compounds 5a-b evaluated for in vitro anticancer activity against sixty human tumour cells derived from nine cancer types (leukemia, non-small-cell lung, colon, CNS, melanoma, ovarian, prostate, and breast cancer) as shown in Table 1. For each compound, dose response curves for each cell line were measured at a minimum of five concentrations at 10 fold dilutions. A protocol of 48 h continuous drug exposure was used and a sulforhodamine B (SRB) protein assay was used to estimate cell viability or growth. The concentration causing 50% cell growth inhibition (GI50), total cell growth inhibition (TGI 0% growth) and 50% cell death (LC50, −50% growth) compared with the control was calculated. […] The MG MID of log TGI and log LC50 have shown similar pattern to the log GI50 MG MID. The other compounds 9a-c evaluated for in vitro one dose anticancer activity against nine human tumor cell panels containing sixty cell lines in percent growth inhibition values are listed in Table 3.

[2] = tested on: 786-0; experiment: NCI in vitro anticancer SRB assay, 786-0; format: cell-based, human; details: 786-0, Renal Cancer
Procedure: as §1, §2

[3] = tested on: MDA-MB-231/ATCC; experiment: NCI in vitro anticancer SRB assay, MDA-MB-231/ATCC; format: cell-based, human; details: Breast Cancer
Procedure: as §1, §2

[4] = tested on: RXF 393; experiment: NCI in vitro anticancer SRB assay, RXF 393; format: cell-based, human; details: RXF 393, Renal Cancer
Procedure: as §1, §2

[5] = tested on: EKVX; experiment: NCI in vitro anticancer SRB assay, EKVX; format: cell-based, human; details: Non-Small Cell Lung Cancer
Procedure: as §1, §2

[6] = tested on: MALME-3M; experiment: NCI in vitro anticancer SRB assay, MALME-3M; format: cell-based, human; details: Melanoma
Procedure: as §1, §2

[7] = tested on: KM12; experiment: NCI in vitro anticancer SRB assay, KM12; format: cell-based, human; details: KM12, Colon Cancer
Procedure: as §1, §2

[8] = tested on: OVCAR-4; experiment: NCI in vitro anticancer SRB assay, OVCAR-4; format: cell-based, human; details: OVCAR-4, Ovarian Cancer
Procedure: as §1, §2

[9] = tested on: MCF7; experiment: NCI in vitro anticancer SRB assay, MCF7; format: cell-based, human; details: MCF7, Breast Cancer
Procedure: as §1, §2

[10] = tested on: SF-539; experiment: NCI in vitro anticancer SRB assay, SF-539; format: cell-based, human; details: SF-539, CNS Cancer
Procedure: as §1, §2

[11] = tested on: SW-620; experiment: NCI in vitro anticancer SRB assay, SW-620; format: cell-based, human; details: SW-620, Colon Cancer
Procedure: as §1, §2

[12] = tested on: T-47D; experiment: NCI in vitro anticancer SRB assay, T-47D; format: cell-based, human; details: Breast Cancer
Procedure: as §1, §2

[13] = tested on: SK-MEL-28; experiment: NCI in vitro anticancer SRB assay, SK-MEL-28; format: cell-based, human; details: SK-MEL-28, Melanoma
Procedure: as §1, §2

[14] = tested on: HCT-116; experiment: NCI in vitro anticancer SRB assay, HCT-116; format: cell-based, human; details: HCT-116, Colon Cancer
Procedure: as §1, §2

[15] = tested on: DU 145; experiment: NCI in vitro anticancer SRB assay, DU 145; format: cell-based, human; details: DU 145, Prostate Cancer
Procedure: as §1, §2

[16] = tested on: U251; experiment: NCI in vitro anticancer SRB assay, U251; format: cell-based, human; details: U251, CNS Cancer
Procedure: as §1, §2

[17] = tested on: sixty human tumour cells; experiment: In vitro cytotoxicity, mean graph midpoints over all cell lines; format: cell-based; details: mean graph midpoint
Procedure: as §1, §2

[18] = tested on: SK-MEL-5; experiment: NCI in vitro anticancer SRB assay, SK-MEL-5; format: cell-based, human; details: SK-MEL-5, Melanoma
Procedure: as §1, §2

[19] = tested on: SNB-75; experiment: NCI in vitro anticancer SRB assay, SNB-75; format: cell-based; details: Homo sapiens, SNB-75, CNS Cancer
Procedure: as §1, §2

[20] = tested on: K-562; experiment: NCI in vitro anticancer SRB assay, K-562; format: cell-based, human; details: K-562, Leukemia
Procedure: as §1, §2

[21] = tested on: NCI-H322M; experiment: NCI in vitro anticancer SRB assay, NCI-H322M; format: cell-based, human; details: Non-Small Cell Lung Cancer
Procedure: as §1, §2

[22] = tested on: HS 578T; experiment: NCI in vitro anticancer SRB assay, HS 578T; format: cell-based, human; details: Breast Cancer
Procedure: as §1, §2

[23] = tested on: HL-60; experiment: In vitro one dose primary anticancer assay, HL-60; format: cell-based, human; details: Leukemia (HL-60), 10^−5 Molar concentration
Procedure: as §1, §2

[24] = tested on: UO-31; experiment: In vitro one dose primary anticancer assay, UO-31; format: cell-based, human; details: Renal (UO-31), 10^−5 Molar concentration
Procedure: as §1, §2

[25] = tested on: SF-295; experiment: In vitro one dose primary anticancer assay, SF-295; format: cell-based, human; details: CNS (SF-295), 10^−5 Molar concentration
Procedure: as §1, §2

[26] = tested on: T-47D; experiment: In vitro one dose primary anticancer assay, T-47D; format: cell-based, human; details: Breast (T-47D), 10^−5 Molar concentration
Procedure: as §1, §2

[27] = tested on: OVCAR8; experiment: In vitro one dose primary anticancer assay, OVCAR8; format: cell-based, human; details: Ovarian (OVCAR8), 10^−5 Molar concentration
Procedure: as §1, §2

[28] = Homo sapiens, repeat test values
[29] = Homo sapiens, 48 h drug exposure, SRB
[30] = log10 of drug concentration causing 50% cell death (−50%)
[31] = log10 of drug concentration causing total cell growth inhibition (0% growth)
[32] = log10 of drug molar concentration causing 50% cell growth inhibition

Molecule: CN1CCN(c2ccc3nc(-c4ccc(OCCCN5C(=O)c6cccc7cccc(c67)C5=O)cc4)[nH]c3c2)CC1 [Compound 5a, 2-{3-[4-(6-[4-methylpiperazino]2-benzimidazolyl)phenoxy]propyl}napthalimide]
- GI50 [1, 28]: 4800 nM
- GI50 [2, 29]: 1530 nM
- GI50 [2, 28]: 1740 nM
- GI50 [3, 29]: 1510 nM
- GI50 [3, 28]: 1410 nM
- GI50 [4, 28]: 10000 nM
- GI50 [5, 29]: 1370 nM
- GI50 [5, 28]: 1830 nM
- GI50 [6, 29]: 7660 nM
- GI50 [6, 28]: 2560 nM
- GI50 [7, 29]: 1720 nM
- GI50 [7, 28]: 2030 nM
- GI50 [8, 29]: 1580 nM
- GI50 [8, 28]: 1850 nM
- GI50 [9, 29]: 1440 nM
- GI50 [9, 28]: 1500 nM
- GI50 [10, 29]: 1640 nM
- GI50 [10, 28]: 1860 nM
- GI50 [11, 29]: 1700 nM
- GI50 [11, 28]: 1830 nM
- GI50 ([12]; Homo sapiens, T47D, 48 h drug exposure, SRB): 1540 nM
- GI50 ([12]; Homo sapiens, T47D, repeat test values): 2660 nM
- GI50 [13, 29]: 1480 nM
- GI50 [13, 28]: 1800 nM
- GI50 [14, 29]: 1760 nM
- GI50 [14, 28]: 1640 nM
- GI50 [15, 29]: 1450 nM
- GI50 [15, 28]: 1740 nM
- GI50 ([16]; Homo sapiens, U-251, 48 h drug exposure, SRB): 1780 nM
- GI50 ([16]; Homo sapiens, U-251, repeat test values): 1970 nM
- Log LC50 MG MID [17, 30]: −4.20
- Log TGI MG MID [17, 31]: −4.80
- Log GI50 MG MID [17, 32]: −5.34
- Log GI50 MG MID ([17]; repeated test values): −5.62
- Log LC50 MG MID ([17]; repeated test values): −4.39
- Log TGI MG MID ([17]; repeated test values): −5.08
- GI50 [18, 29]: 1690 nM
- GI50 [18, 28]: 1600 nM
- GI50 ([19]; 48 h drug exposure, SRB): 20 nM
- GI50 ([19]; repeat test values): 1770 nM
- GI50 ([20]; Homo sapiens, K562, 48 h drug exposure, SRB): 490 nM
- GI50 ([20]; Homo sapiens, K562, repeat test values): 1580 nM
- GI50 [21, 29]: 1810 nM
- GI50 [21, 28]: 1640 nM
- GI50 [22, 29]: 2100 nM
- GI50 [22, 28]: 2110 nM

Molecule: 2-{5-[4-(5-[4-(6-morpholino-2-benzimidazolyl)phenoxy]pentyl)piperazino]pentyl}napthalimide [Compound 9c]
- % GI (percent growth inhibition) [23]: 97%
- % GI (percent growth inhibition) [24]: 96%
- % GI (percent growth inhibition) [25]: 84%
- % GI (percent growth inhibition) [26]: 99%
- % GI (percent growth inhibition) [27]: 89%

Molecule: 2-{4-[4-(6-morpholino-2-benzimidazolyl)phenoxy]butyl}naphthalimide [Compound 5b]
- GI50 ([1]; 48 h drug exposure, SRB): 1450 nM
- GI50 ([1]; repeat test values): 1540 nM
- GI50 ([2]; 48 h drug exposure, SRB): 1210 nM
- GI50 ([2]; repeat test values): 1370 nM
- GI50 ([3]; 48 h drug exposure, SRB): 2510 nM
- GI50 ([3]; repeat test values): 4250 nM
- GI50 ([4]; 48 h drug exposure, SRB): 850 nM
- GI50 ([4]; repeat test values): 340 nM
- GI50 ([5]; 48 h drug exposure, SRB): 12200 nM
- GI50 ([5]; repeat test values): 25400 nM
- GI50 ([6]; 48 h drug exposure, SRB): 90 nM
- GI50 ([6]; repeat test values): 3340 nM
- GI50 ([7]; 48 h drug exposure, SRB): 1140 nM
- GI50 ([7]; repeat test values): 7250 nM
- GI50 ([8]; 48 h drug exposure, SRB): 1470 nM
- GI50 ([8]; repeat test values): 2210 nM
- GI50 ([9]; 48 h drug exposure, SRB): 3330 nM
- GI50 ([9]; repeat test values): 2560 nM
- GI50 ([10]; 48 h drug exposure, SRB): 1700 nM
- GI50 ([10]; repeat test values): 1600 nM
- GI50 ([11]; 48 h drug exposure, SRB): 3190 nM
- GI50 ([11]; repeat test values): 4490 nM
- GI50 ([12]; 48 h drug exposure, SRB): 2200 nM
- GI50 ([12]; repeat test values): 4320 nM
- GI50 ([13]; 48 h drug exposure, SRB): 1300 nM
- GI50 ([13]; repeat test values): 1560 nM
- GI50 ([14]; 48 h drug exposure, SRB): 1760 nM
- GI50 ([15]; 48 h drug exposure, SRB): 3270 nM
- GI50 ([15]; repeat test values): 4560 nM
- GI50 ([16]; 48 h drug exposure, SRB): 1410 nM
- GI50 ([16]; repeat test values): 1660 nM
- Log LC50 MG MID [17, 30]: −4.46
- Log TGI MG MID [17, 31]: −4.94
- Log GI50 MG MID [17, 32]: −5.54
- Log GI50 MG MID ([17]; repeated test values): −5.35
- Log LC50 MG MID ([17]; repeated test values): −4.27
- Log TGI MG MID ([17]; repeated test values): −4.71
- GI50 ([18]; 48 h drug exposure, SRB): 1440 nM
- GI50 ([18]; repeat test values): 1770 nM
- GI50 ([20]; 48 h drug exposure, SRB): 2970 nM
- GI50 ([20]; repeat test values): 3250 nM
- GI50 ([21]; 48 h drug exposure, SRB): 110 nM
- GI50 ([21]; repeat test values): 40700 nM
- GI50 ([22]; 48 h drug exposure, SRB): 990 nM
- GI50 ([22]; repeat test values): 4680 nM

Molecule: 2-{4-[4-(4-[4-(6-morpholino-2-benzimidazolyl)phenoxy]butyl)piperazino]butyl}napthalimide [Compound 9b]
- % GI (percent growth inhibition) [23]: 50%
- % GI (percent growth inhibition) [24]: 68%
- % GI (percent growth inhibition) [25]: 50%
- % GI (percent growth inhibition) [26]: 50%
- % GI (percent growth inhibition) [27]: 78%

Molecule: 2-{4-[4-(4-[4-(6-[4-methylpiperazino]-2-benzimidazolyl)phenoxy]butyl)piperazino]butyl}napthalimide [Compound 9a]
- % GI (percent growth inhibition) [23]: 84%
- % GI (percent growth inhibition) [24]: 85%
- % GI (percent growth inhibition) [25]: 71%
- % GI (percent growth inhibition) [26]: 64%
- % GI (percent growth inhibition) [27]: 77%
